Reference: US9775844B2, “Heterocyclic compounds and uses thereof” (Infinity Pharmaceuticals, Inc., priority 2014, dated 2017)

How the values were obtained:
[1] = target: PI3K α (Homo sapiens (Human), UniProt P42336); test: PI3-Kinase Promega ADP-Glo Max assay; format: biochemical
[2] = target: PI3K β (Homo sapiens (Human), UniProt P42338); test: PI3-Kinase Promega ADP-Glo Max assay; format: biochemical
Procedure: Promega ADP-Glo Max assay kit (Cat. No. V7002) was utilized to determine IC50 values for α, β, δ and γ isoforms of human Class I PI3 kinases (Millipore). […] Reactions were incubated at room temperature for 2 hours followed by addition of 25 uL of stop solution. After a 40-minute incubation at room temperature, 50 uL of Promega detection mix was added followed by incubation for 1 hour at room temperature. Plates were then read on Envision plate reader in lunimescence mode. Data was converted to % inhibition using the following equation below:
[formula] where S is the sample luminescence, Pos is a positive control without added PI3K, Neg is the negative control without added compound. Data was then plotted as % inhibition vs compound concentration.

[3] = target: PI3K δ (Homo sapiens (Human), UniProt O00329); test: PI3-Kinase Promega ADP-Glo Max assay; format: biochemical
[4] = target: PI3K γ (Homo sapiens (Human), UniProt P48736); test: PI3-Kinase Promega ADP-Glo Max assay; format: biochemical
[5] = target: PI3K-δ in RAJI cells (Homo sapiens (Human), UniProt O00329); test: RAJI p110 δ assay (PI3K-δ selective cellular assay, phospho-AKT); format: cell-based; conditions: phospho-AKT; read-out: RAJI p110 δ assay IC50
[6] = target: PI3K-γ in RAW264.7 macrophages (Mus musculus (Mouse), UniProt Q9JHG7); test: Raw264.7 p110 γ assay (PI3K-γ selective cellular assay, C5a-stimulated phospho-AKT); format: cell-based; conditions: for IC50: phospho-AKT, read-out: Raw264.7 p110 γ assay IC50
Chain of PI3K-γ in RAW264.7 macrophages (Q9JHG7 whole entry): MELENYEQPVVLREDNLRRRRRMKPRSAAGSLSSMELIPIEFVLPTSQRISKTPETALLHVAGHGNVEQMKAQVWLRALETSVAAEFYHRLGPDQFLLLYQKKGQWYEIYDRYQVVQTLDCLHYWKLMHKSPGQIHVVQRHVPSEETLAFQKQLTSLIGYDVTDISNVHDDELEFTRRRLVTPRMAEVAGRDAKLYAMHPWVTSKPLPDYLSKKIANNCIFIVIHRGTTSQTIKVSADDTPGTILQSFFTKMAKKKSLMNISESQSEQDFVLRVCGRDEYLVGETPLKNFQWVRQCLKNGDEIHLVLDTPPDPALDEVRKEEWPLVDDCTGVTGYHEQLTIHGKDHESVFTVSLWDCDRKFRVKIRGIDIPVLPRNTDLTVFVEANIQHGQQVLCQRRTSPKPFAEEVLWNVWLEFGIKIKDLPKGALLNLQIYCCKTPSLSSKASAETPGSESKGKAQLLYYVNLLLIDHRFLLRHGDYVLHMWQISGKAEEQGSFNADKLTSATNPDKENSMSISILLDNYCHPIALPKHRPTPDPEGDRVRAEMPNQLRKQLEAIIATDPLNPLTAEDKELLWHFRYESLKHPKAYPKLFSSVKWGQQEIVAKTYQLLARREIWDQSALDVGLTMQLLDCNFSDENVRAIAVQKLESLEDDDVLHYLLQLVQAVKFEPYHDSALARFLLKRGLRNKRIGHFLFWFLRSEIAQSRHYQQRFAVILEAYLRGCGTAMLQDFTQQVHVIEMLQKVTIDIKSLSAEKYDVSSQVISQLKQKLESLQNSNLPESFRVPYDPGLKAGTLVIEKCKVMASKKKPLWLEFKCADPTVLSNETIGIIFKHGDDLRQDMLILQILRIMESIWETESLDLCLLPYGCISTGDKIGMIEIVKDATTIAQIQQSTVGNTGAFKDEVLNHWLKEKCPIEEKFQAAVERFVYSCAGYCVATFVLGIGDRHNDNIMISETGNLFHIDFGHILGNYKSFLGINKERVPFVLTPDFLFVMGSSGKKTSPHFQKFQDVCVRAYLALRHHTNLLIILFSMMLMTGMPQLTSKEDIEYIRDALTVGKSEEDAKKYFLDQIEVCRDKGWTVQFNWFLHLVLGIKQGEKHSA
Source text: Briefly, serum-starved RAW264.7 cells are stimulated with a known GPCR agonist C5a. […] Cells can be treated with test compounds prior to, simultaneously with, or subsequent to the stimulation by C5a. RAW 264.7 cells respond to the complement component fragment C5a through activation of the C5a receptor, and the C5a receptor activates macrophages and induces cell migration.

Chain of PI3K α (P42336 whole entry): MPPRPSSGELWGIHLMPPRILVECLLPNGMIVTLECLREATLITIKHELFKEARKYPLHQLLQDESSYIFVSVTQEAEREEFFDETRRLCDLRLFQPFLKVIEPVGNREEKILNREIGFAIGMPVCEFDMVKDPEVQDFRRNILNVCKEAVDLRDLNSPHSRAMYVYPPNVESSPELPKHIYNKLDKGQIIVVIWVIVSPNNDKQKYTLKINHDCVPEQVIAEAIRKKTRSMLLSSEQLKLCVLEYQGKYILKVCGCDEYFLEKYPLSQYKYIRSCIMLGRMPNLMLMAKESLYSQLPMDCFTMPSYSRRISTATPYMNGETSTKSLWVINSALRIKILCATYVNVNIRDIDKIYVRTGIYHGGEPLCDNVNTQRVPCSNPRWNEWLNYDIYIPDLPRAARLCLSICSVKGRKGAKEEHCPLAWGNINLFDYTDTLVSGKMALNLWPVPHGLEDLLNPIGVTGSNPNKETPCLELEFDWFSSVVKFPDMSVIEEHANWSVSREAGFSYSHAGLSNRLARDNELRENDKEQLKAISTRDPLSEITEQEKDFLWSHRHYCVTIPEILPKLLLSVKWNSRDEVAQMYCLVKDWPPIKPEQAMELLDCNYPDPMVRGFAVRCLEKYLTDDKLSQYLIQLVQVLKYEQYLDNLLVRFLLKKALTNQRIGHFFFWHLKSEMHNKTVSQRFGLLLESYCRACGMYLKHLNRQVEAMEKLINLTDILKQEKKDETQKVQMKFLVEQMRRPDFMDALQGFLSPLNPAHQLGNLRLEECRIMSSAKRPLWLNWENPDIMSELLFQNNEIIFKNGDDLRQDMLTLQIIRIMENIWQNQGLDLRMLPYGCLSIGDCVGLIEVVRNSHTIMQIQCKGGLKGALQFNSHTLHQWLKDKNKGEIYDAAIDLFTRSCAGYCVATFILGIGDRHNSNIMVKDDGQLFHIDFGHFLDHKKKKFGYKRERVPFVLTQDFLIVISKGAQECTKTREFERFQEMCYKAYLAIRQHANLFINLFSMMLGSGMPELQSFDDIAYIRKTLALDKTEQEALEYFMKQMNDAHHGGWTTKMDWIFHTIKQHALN
Chain of PI3K α (P27986 whole entry partner): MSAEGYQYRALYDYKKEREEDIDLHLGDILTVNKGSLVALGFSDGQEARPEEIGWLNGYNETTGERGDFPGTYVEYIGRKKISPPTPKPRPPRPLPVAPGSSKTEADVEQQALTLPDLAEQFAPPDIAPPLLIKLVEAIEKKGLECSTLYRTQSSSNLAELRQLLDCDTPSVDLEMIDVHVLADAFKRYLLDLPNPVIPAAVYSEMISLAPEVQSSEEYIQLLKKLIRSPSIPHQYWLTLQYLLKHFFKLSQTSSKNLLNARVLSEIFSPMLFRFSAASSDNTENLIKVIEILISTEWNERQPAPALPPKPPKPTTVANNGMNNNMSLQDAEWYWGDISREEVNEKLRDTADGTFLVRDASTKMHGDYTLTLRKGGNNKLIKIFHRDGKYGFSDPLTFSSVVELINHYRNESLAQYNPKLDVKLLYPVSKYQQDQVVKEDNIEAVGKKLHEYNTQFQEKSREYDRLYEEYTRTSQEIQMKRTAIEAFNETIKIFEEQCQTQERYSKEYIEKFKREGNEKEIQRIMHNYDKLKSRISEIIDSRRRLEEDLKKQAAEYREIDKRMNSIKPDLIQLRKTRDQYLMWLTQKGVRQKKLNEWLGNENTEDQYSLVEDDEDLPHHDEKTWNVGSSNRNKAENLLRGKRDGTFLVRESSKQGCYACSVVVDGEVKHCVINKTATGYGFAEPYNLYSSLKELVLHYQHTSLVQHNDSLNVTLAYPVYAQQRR
Chain of PI3K-δ in RAJI cells (O00329 whole entry): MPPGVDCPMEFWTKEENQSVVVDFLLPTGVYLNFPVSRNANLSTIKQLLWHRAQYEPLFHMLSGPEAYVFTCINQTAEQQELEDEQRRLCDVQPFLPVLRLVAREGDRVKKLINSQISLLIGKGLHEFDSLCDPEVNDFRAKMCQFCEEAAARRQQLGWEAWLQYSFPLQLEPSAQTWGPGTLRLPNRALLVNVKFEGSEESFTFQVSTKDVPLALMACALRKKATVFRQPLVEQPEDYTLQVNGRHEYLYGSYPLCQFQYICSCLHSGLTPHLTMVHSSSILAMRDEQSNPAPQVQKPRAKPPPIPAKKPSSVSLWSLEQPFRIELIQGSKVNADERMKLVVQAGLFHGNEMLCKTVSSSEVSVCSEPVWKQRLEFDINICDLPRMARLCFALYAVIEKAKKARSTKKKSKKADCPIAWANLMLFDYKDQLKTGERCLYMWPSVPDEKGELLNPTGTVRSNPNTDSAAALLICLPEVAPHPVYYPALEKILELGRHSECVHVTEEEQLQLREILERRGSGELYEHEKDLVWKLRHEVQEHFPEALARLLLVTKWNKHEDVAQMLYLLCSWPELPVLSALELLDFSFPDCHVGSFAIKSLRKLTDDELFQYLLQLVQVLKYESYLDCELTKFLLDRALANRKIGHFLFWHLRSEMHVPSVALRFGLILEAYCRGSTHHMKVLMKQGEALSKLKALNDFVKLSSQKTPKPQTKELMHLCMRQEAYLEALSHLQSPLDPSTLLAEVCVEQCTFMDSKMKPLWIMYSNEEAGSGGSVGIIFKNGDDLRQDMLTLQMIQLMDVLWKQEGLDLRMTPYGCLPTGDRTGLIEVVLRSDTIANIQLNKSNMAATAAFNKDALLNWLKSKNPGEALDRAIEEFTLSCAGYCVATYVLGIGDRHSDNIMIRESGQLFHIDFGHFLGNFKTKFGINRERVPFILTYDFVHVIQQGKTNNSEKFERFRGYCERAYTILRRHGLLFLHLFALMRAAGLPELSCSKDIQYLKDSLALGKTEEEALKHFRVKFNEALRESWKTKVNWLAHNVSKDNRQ
Chain of PI3K-δ in RAJI cells (P27986 whole entry partner): as the sequence (P27986 whole entry partner) above
Chain of PI3K δ (O00329 whole entry): as the sequence (O00329 whole entry) above
Chain of PI3K δ (P27986 whole entry partner): as the sequence (P27986 whole entry partner) above

SMILES | IC50 [1] | IC50 [2] | IC50 [3] | IC50 [4] | PI3K δ/PI3K γ IC50 (selectivity) [4] | IC50 [5] | RAJIδ/Raw264.7 γ IC50 (selectivity) [6] | IC50 [6]
C[C@H](NC(=O)c1c(N)nn2cccnc12)c1cc2cccc(C#CC3CCCCC3)c2c(=O)n1-c1ccccc1 [Compound 65] | 5 to 10 µM | 5 to 10 µM | 5 to 10 µM | 1 to 5 µM | W (W = >1 to <10) | 1 to 10 µM | X (X = 10 to <50) | 0.1 to 10 µM
C[C@H](NC(=O)c1c(N)nn2cccnc12)c1cc2cccc(C#Cc3cocn3)c2c(=O)n1-c1ccccc1 [Compound 66] | 5 to 10 µM | 1 to 5 µM | 1 to 5 µM | 0.001 to 0.1 µM | X (X = 10 to <50) | 0.1 to 0.5 µM | X (X = 10 to <50) | 0.001 to 0.05 µM
Cc1ncccc1C#Cc1cccc2cc([C@H](C)NC(=O)c3c(N)nn4cccnc34)n(-c3ccccc3)c(=O)c12 [Compound 67] | 5 to 10 µM | 5 to 10 µM | 5 to 10 µM | 1 to 5 µM | W (W = >1 to <10) | 1 to 10 µM | X (X = 10 to <50) | 0.1 to 10 µM
Cc1cnc(C(=O)N[C@@H](C)c2cc3cccc(C#Cc4cnn(C)c4)c3c(=O)n2-c2ccccc2)c(N)n1 [Compound 68] | 5 to 10 µM | 5 to 10 µM | 5 to 10 µM | 1 to 5 µM | W (W = >1 to <10) | 1 to 10 µM | W (W = >1 to <10) | 0.1 to 10 µM
C/C=C/c1cccc2cc([C@H](C)NC(=O)c3c(N)nn4cccnc34)n(-c3ccccc3)c(=O)c12 [Compound 70] | 5 to 10 µM | 5 to 10 µM | 5 to 10 µM | 0.1 to 0.5 µM | X (key: V = 0.1 to 1; W = >1 to <10; X = 10 to <50; Y = 50 to <850) | 0.001 to 0.1 µM | X (X = 10 to <50) | 0.001 to 0.05 µM
C[C@H](NC(=O)c1c(N)nn2cccnc12)c1cc2cccc(C#CC3CCNCC3)c2c(=O)n1-c1ccccc1 [Compound 72] | 5 to 10 µM | 5 to 10 µM | 5 to 10 µM | 0.5 to 1 µM | X (X = 10 to <50) | 1 to 10 µM | W (W = >1 to <10) | 0.1 to 10 µM
C[C@H](NC(=O)c1c(N)nn2cccnc12)c1cc2cccc(C#Cc3ccnn3C)c2c(=O)n1-c1ccccc1 [Compound 73] | 5 to 10 µM | 5 to 10 µM | 5 to 10 µM | 0.1 to 0.5 µM | X (X = 10 to <50) | 0.5 to 1 µM | Y (Y = 50 to <850) | 0.001 to 0.05 µM
C[C@H](NC(=O)c1c(N)nn2cccnc12)c1cc2cccc(C#CC3CNC3)c2c(=O)n1-c1ccccc1 [Compound 74] | 5 to 10 µM | 5 to 10 µM | 1 to 5 µM | 0.5 to 1 µM | W (key: V = 0.1 to 1; W = >1 to <10; X = 10 to <50; Y = 50 to <850) | 1 to 10 µM | W (key: V = 0.1 to 1; W = >1 to <10; X = 10 to <50; Y = 50 to <850) | 0.1 to 10 µM
Cc1ncsc1C#Cc1cccc2cc([C@H](C)NC(=O)c3c(N)nn4cccnc34)n(-c3ccccc3)c(=O)c12 [Compound 75] | 5 to 10 µM | 5 to 10 µM | 5 to 10 µM | 1 to 5 µM | W (W = >1 to <10) | 1 to 10 µM | Y (Y = 50 to <850) | 0.001 to 0.05 µM
Cc1ncc(C#Cc2cccc3cc([C@H](C)NC(=O)c4c(N)nn5cccnc45)n(-c4ccccc4)c(=O)c23)s1 [Compound 76] | 5 to 10 µM | 5 to 10 µM | 5 to 10 µM | 0.1 to 0.5 µM | Y (Y = 50 to <850) | 0.1 to 0.5 µM | X (X = 10 to <50) | 0.001 to 0.05 µM
Cc1ccc(C#Cc2cccc3cc([C@H](C)NC(=O)c4c(N)nn5cccnc45)n(-c4ccccc4)c(=O)c23)cn1 [Compound 77] | 5 to 10 µM | 5 to 10 µM | 5 to 10 µM | 0.001 to 0.1 µM | Y (Y = 50 to <850) | 0.5 to 1 µM | Y (Y = 50 to <850) | 0.001 to 0.05 µM
Cc1scnc1C#Cc1cccc2cc([C@H](C)NC(=O)c3c(N)nn4cccnc34)n(-c3ccccc3)c(=O)c12 [Compound 78] | 5 to 10 µM | 5 to 10 µM | 5 to 10 µM | 0.1 to 0.5 µM | X (X = 10 to <50) | 0.1 to 0.5 µM | X (X = 10 to <50) | 0.001 to 0.05 µM
Cc1nc(C)c(C#Cc2cccc3cc([C@H](C)NC(=O)c4c(N)nn5cccnc45)n(-c4ccccc4)c(=O)c23)s1 [Compound 79] | 5 to 10 µM | 5 to 10 µM | 5 to 10 µM | 0.5 to 1 µM | X (X = 10 to <50) | 1 to 10 µM | Y (Y = 50 to <850) | 0.001 to 0.05 µM
C[C@H](NC(=O)c1c(N)nn2cccnc12)c1cc2cccc(C#Cc3cn[nH]c3)c2c(=O)n1-c1ccccc1 [Compound 80] | 1 to 5 µM | 1 to 5 µM | 5 to 10 µM | 0.001 to 0.1 µM | Y (key: V = 0.1 to 1; W = >1 to <10; X = 10 to <50; Y = 50 to <850) | 0.1 to 0.5 µM | Y (key: V = 0.1 to 1; W = >1 to <10; X = 10 to <50; Y = 50 to <850) | 0.001 to 0.05 µM
CC(=O)N1CCC(C#Cc2cccc3cc([C@H](C)NC(=O)c4c(N)nn5cccnc45)n(-c4ccccc4)c(=O)c23)CC1 [Compound 82] | 5 to 10 µM | 5 to 10 µM | 5 to 10 µM | 0.1 to 0.5 µM | X (key: V = 0.1 to 1; W = >1 to <10; X = 10 to <50; Y = 50 to <850) | 0.5 to 1 µM | X (key: V = 0.1 to 1; W = >1 to <10; X = 10 to <50; Y = 50 to <850) | 0.001 to 0.05 µM
C[C@H](NC(=O)c1c(N)nn2cccnc12)c1cc2cccc(C#CC3CCN(S(C)(=O)=O)CC3)c2c(=O)n1-c1ccccc1 [Compound 83] | 5 to 10 µM | 5 to 10 µM | 5 to 10 µM | 0.5 to 1 µM | X (key: V = 0.1 to 1; W = >1 to <10; X = 10 to <50; Y = 50 to <850) | 0.5 to 1 µM | X (key: V = 0.1 to 1; W = >1 to <10; X = 10 to <50; Y = 50 to <850) | 0.001 to 0.05 µM
C[C@H](NC(=O)c1c(N)nn2cccnc12)c1cc2cccc(C#CC3CCOC3)c2c(=O)n1-c1ccccc1 (some centres unmarked) [Compound 84] | 5 to 10 µM | 5 to 10 µM | 5 to 10 µM | 0.001 to 0.1 µM | Y (Y = 50 to <850) | 0.1 to 0.5 µM | X (X = 10 to <50) | 0.001 to 0.05 µM
C[C@H](NC(=O)c1c(N)nn2cccnc12)c1cc2ccc3ccccc3c2c(=O)n1-c1ccccc1 [Compound 89] | 5 to 10 µM | 5 to 10 µM | 5 to 10 µM | 0.5 to 1 µM | X (X = 10 to <50) | 1 to 10 µM | Y (Y = 50 to <850) | 0.001 to 0.05 µM
C[C@H](NC(=O)c1c(N)nn2cccnc12)c1cc2cccc(NC(=O)c3cnn(C)c3)c2c(=O)n1-c1ccccc1 [Compound 90] | 5 to 10 µM | 5 to 10 µM | 5 to 10 µM | 1 to 5 µM | W (key: V = 0.1 to 1; W = >1 to <10; X = 10 to <50; Y = 50 to <850) | 1 to 10 µM | X (key: V = 0.1 to 1; W = >1 to <10; X = 10 to <50; Y = 50 to <850) | 0.1 to 10 µM
